# Measurements from US20180169108A1, “Drug Combinations For the Treatment of HIV” (The Johns Hopkins University, priority 2015, published 2018).
# Experiments:
# [1] = test system: HIV-1 (latent, in resting CD4+ T cells from infected individuals); settings: earlier study of the inventors (32); cited from earlier work
# [2] = test system: HIV-1 (latent, in resting CD4+ T cells from infected individuals)
# Excerpt: (§1) The final DMSO percentage was 0.2% (v/v) for all single and combination treatments. Concentrations were chosen based on previous ex vivo studies with rCD4s from infected individuals as well as studies using in vitro latency models (13, 28, 29, 32-34) with the aim of selecting clinically relevant concentrations.
# (§2) The Bliss independence model, one method to predict the expected combined effects of multiple drugs assuming the drugs act through independent mechanisms, as a metric by which to evaluate the latency reversing activity of drug combinations was used. The Bliss independence model is defined by the equation:
# (§3) If Dfaxy=0, then the drug combination follows the Bliss model for independent action. […] In this analysis, the fraction affected was calculated as follows for intracellular HIV-1 mRNA and for supernatant HIV-1 virion quantitation:
# (§4) fax=(copies drug X−copies DMSO control)/(copies PMA/I−copies DMSO control)
# [3] = test system: HIV-1 (latent, in resting CD4+ T cells from infected individuals); assay type: cell-based; settings: for virus release into supernatant (in words): 24 hours of treatment; for ρ, median fold change in supernatant HIV-1 mRNA versus DMSO control observed in the ex vivo assay: lower bound, as no virion production was detectable for DMSO
# Protocol: Production and release of HIV-1 virions by LRA-treated rCD4s indicates complete reversal of latency in those cells. To assess whether combinations of LRAs induced rapid virus release, HIV-1 mRNA were measured in the culture supernatants of LRA-treated rCD4s from infected individuals on suppressive ART using an RT-qPCR assay previously shown to provide sensitive and accurate quantitation of HIV-1 virion production (45). […] The Bliss independence model was applied to quantitate interactions between LRAs.
# as §1
# HIV-1 mRNA was extracted from 0.25 mL of supernatant from the LRA-treated cell cultures described above with 0.75 mL of TRIzol® LS Reagent (Invitrogen) according to the manufacturer's protocol. cDNA synthesis and real-time quantitative PCR was performed as described (32). […] The limit of detection for each qPCR was 10 copies per reaction, which scaled to a limit of detection of 150 copies per mL of culture supernatant. Primers and probes are listed below. Molecular standard curve was generated as described above.
# as §2, §3, §4
# [4] = continuous infusion for 14 or 21 days; cited from earlier work
# [5] = cancer patients; cited from earlier work
# [6] = test system: HIV-1 (latent, in resting CD4+ T cells from infected individuals); settings: earlier study (32); cited from earlier work
# [7] = test system: HIV-1; settings: patients on ART; cited from earlier work
Compound,latency reversal in rCD4s from infected individuals (in words) [1],virus release into supernatant (in words) [3],"ρ, median fold change in supernatant HIV-1 mRNA versus DMSO control observed in the ex vivo assay [3]",other results
Cc1sc2c(c1C)C(c1ccc(Cl)cc1)=N[C@@H](CC(=O)OC(C)(C)C)c1nnc(C)n1-2 [JQ1],only minimally active,,,
CCC/C=C/C=C/C(=O)O[C@H]1/C(=C/C(=O)OC)C[C@H]2C[C@H]([C@@H](C)O)OC(=O)C[C@H](O)C[C@@H]3C[C@H](OC(C)=O)C(C)(C)[C@](O)(C[C@@H]4C/C(=C/C(=O)OC)C[C@H](/C=C/C(C)(C)[C@]1(O)O2)O4)O3 [bryostatin-1],,significant virus release,120,"induction of intracellular HIV-1 mRNA (significance, in words) ([2]; 1 nM bryostatin-1): did not induce significant intracellular HIV-1 mRNA; mean increase in intracellular HIV-1 mRNA, fold induction relative to DMSO control ([2]; rCD4s from infected individuals on ART, 24 h, 10 nM bryostatin-1, 300 nM prostratin, 40 nM romidepsin, 50 ng/mL PMA + 1 μM ionomycin): 12.8 fold; intracellular HIV-1 mRNA induction relative to the maximum reactivation elicited by T cell activation [1]: four; approximated maximally tolerated dose [4]: ~16 μg/m2/day; clinical tolerability (in words) [5]: dose limiting toxicities grade 3/4 myalgia, arthralgia, and weakness"
CC(=O)O[C@@]12C[C@@H](C)[C@@]3(O)[C@@H](C=C(CO)C[C@]4(O)C(=O)C(C)=C[C@@H]34)[C@@H]1C2(C)C [prostratin],,significant virus release,209,
C/C=C1\NC(=O)[C@H]2CSSCC/C=C/[C@H](CC(=O)N[C@H](C(C)C)C(=O)N2)OC(=O)[C@H](C(C)C)NC1=O [romidepsin],,,15,
O=C(CCCCCCC(=O)Nc1ccccc1)NO [vorinostat],only minimally active,,,viral production ex vivo (in words) [6]: fail to stimulate detectable viral production; increase in plasma HIV-1 RNA using quantitative clinical assays (in words) [7]: no increases in plasma HIV-1 RNA
